From patent US20100311714A1, “1H-IMIDAZO[4,5-c]QUINOLINONE COMPOUNDS” (priority 2009, published 2010)
Where two headings read alike, the source gives them in different places.

Columns and labels:
[1] = system: S6 Ribosomal Protein phosphorylation Ser235/236 in TSC1 null mouse embryo fibroblast (MEF) cells; experiment: Reverse protein array, S6 Ribosomal Protein phosphorylation in TSC1 null MEF cells; format: cell-based; details: 1 h, TSC1-/- MEFs, 60 minutes
How it was run: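 Phospho-S6 (Ser235/236) was quantified by reverse protein array of cell lysates with a phospho-specific primary antibody. […]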

[2] = biological target: T1, PI3K beta (Homo sapiens, UniProt P42338); experiment: PI3K beta kinase assay (Kinase-Glo luminescence); format: biochemical
T1 construct: for the full-length p110-b subunit are generated and fused by overlapping PCR; His tag (C); made in house; host or cells: baculovirus BV949; Tn5 (Trichoplusia ni) or TiniPro insect cells
How it was run: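 PI3Kβ construct BV949 (p85 iSH2–p110β full-length, C-His), 25 nM, reacted with 1 μM ATP and 10 μg/mL phosphatidylinositol in Tris pH 7.5, MgCl2, NaCl, CHAPS, DTT buffer, 60 min at room temperature. Remaining ATP by Kinase-Glo luminescence; IC50 from 4-parameter logistic fit of 8 concentrations.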

T1 sequence (P42338 with tags, fused parts or gaps limits assumed): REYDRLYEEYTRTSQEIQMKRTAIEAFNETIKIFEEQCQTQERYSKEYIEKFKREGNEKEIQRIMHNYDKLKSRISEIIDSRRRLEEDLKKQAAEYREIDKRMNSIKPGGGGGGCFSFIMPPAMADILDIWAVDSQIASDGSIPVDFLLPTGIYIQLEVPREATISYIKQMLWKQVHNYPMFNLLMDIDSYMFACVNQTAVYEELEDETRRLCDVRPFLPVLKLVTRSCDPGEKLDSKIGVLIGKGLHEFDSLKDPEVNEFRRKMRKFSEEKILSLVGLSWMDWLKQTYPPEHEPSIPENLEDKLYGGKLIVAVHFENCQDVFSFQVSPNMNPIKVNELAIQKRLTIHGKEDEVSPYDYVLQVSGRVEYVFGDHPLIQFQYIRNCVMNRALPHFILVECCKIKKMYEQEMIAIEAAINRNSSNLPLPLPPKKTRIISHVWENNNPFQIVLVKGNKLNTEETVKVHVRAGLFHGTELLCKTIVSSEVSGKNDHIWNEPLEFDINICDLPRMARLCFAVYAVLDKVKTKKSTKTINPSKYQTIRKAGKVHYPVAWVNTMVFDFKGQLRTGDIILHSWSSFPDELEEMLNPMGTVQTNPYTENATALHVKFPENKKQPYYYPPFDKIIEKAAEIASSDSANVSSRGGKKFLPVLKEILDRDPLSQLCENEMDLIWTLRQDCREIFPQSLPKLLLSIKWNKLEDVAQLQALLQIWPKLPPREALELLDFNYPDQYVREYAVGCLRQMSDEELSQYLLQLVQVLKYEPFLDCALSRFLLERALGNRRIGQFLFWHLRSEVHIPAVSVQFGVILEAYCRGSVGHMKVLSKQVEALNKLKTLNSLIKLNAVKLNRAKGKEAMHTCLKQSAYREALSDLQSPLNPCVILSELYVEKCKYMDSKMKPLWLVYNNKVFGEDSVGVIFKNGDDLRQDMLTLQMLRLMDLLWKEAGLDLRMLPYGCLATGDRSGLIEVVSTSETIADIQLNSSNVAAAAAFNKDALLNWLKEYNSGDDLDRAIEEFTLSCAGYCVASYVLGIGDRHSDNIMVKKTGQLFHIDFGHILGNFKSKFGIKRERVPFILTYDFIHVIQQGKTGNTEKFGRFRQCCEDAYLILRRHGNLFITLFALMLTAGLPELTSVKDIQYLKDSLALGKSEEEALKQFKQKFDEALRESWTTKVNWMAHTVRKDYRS

IC50 ([2]; read-out: EPK_PI3Kbeta/IC50) | IC50 ([2]; read-out: PI3Kbeta/IC50) | Compound | IC50 ([1]; read-out: p-S6 IC50) | IC50 ([1]; read-out: p-S6)
301 nM |  | CNc1ncc(-c2ccc3ncc4c(c3c2)n(-c2ccc(N3CC(O)C3)nc2C)c(=O)n4C)cc1F [Example 29.3, 8-(5-Fluoro-6-methylamino-pyridin-3-yl)-1-[6-(3-hydroxy-azetidin-1-yl)-2-methyl-pyridin-3-yl]-3-methyl-1,3-dihydro-imidazo[4,5-c]quinolin-2-one] | 7.8 nM | 
1160 nM |  | Cc1nc(N2CCC2)ccc1-n1c(=O)n(C)c2cnc3ccc(-c4cncc(N5CCC5)c4)cc3c21 [Example 23.1, 1-(6-Azetidin-1-yl-2-methyl-pyridin-3-yl)-8-(5-azetidin-1-yl-pyridin-3-yl)-3-methyl-1,3-dihydro-imidazo[4,5-c]quinolin-2-one] | 2 nM | 
 | 7 nM | Cc1nc(F)ccc1-n1c(=O)n(C)c2cnc3ccc(-c4cnc(N)c(C(F)(F)F)c4)cc3c21 [Example 7.1, 8-(6-Amino-5-trifluoromethyl-pyridin-3-yl)-1-(6-fluoro-2-methyl-pyridin-3-yl)-3-methyl-1,3-dihydro-imidazo[4,5-c]quinolin-2-one] |  | 2.23 nM
 | 115 nM | COc1ncccc1-n1c(=O)n(C)c2cnc3ccc(-c4cnc5[nH]ccc5c4)cc3c21 [Example 1.2, 1-(2-Methoxy-pyridin-3-yl)-3-methyl-8-(1H-pyrrolo[2,3-b]pyridin-5-yl)-1,3-dihydro-imidazo[4,5-c]quinolin-2-one] |  | 2.61 nM
